Patent US6630481B2, “Viologen linked acridine based molecule and process for the preparation thereof” (Council of Scientific and Industrial Research of India, priority 2001, dated 2003)

Tests used:
calf thymus DNA = assay: DNA binding affinity (association constants) by absorption and fluorescence; settings: buffer containing 1 mM EDTA
Description: DNA binding efficiency. DNA binding affinities of acridine-viologen bifunctional molecules represented by compound of formula 1a and 1d were analyzed using calf thymus DNA, in NaCl buffer at different salt concentrations (2 mM and 100 mM). Test solutions containing different concentrations of calf thymus DNA in NaCl buffer were incubated at room temperature for one hour to complete the complexation and were analyzed using absorption and fluorescence techniques. […] The binding constants of viologen linked acridines with DNA were determined according to the reported procedures. References may be made to Peacocke, A. R.; Skerrett, J. N. H. Trans. Faraday Soc. 1956, 52, 261; McGhee, J. D.; von Hippel, P. H. J. Mol. Biol. 1974, 86, 469; Scatchard, G. Ann. N.Y. Acad. Sci 1949, 51, 660; Adam, W.; Cadet, J.; Dall'Acqua, F.; Epe, B.; Ramaiah, D.; Saha-Moller, C. R. Angew. Chem. Int. Ed. Engl. 1995, 34, 107). […] Further fluorescence lifetimes of these compounds were also examined in presence and absence of DNA.

PM2 DNA = assay: DNA relaxation assay: photoactivated cleavage of plasmid DNA with repair endonucleases; assay type: biochemical; settings: 360 nm light; for damage sensitive to FPG protein with increase in the time of irradiation: 0° C., FIG. 5 and FIG. 6; for generation of single strand breaks (SSB) with irradiation time: irradiation for 30 min
Excerpt: Cleavage of plasmid DNA was followed by monitoring the conversion of supercoiled (Form I) to open circular relaxed (Form II) and linear (Form III). Plasmid DNA cleavage is a very sensitive technique and when combined with several repair endonucleases, it can serve as a kind of fingerprint of the species directly responsible for the damage. Induction of one single strand break (SSB) by a compound converts Form I to Form II and the quantification of which indicates its efficiency of DNA cleavage. A DNA relaxation assay was used to quantify SSB and endonuclease-sensitive modifications (Epe, B.; Helger, J.; Wild, D. Carcinogenesis 1989, 10, 2019 and Epe, B.; Mftzel, P.; Adam, W. Chem. Biol. Interactions 1988, 67, 149). This assay makes use of the fact that Form I when converted by either a single strand break (SSB) or the incision by a repair endonuclease leads to Form II, which migrates separately in agarose gel electrophoresis.
Phosphate-buffered (pH 7.0), air-saturated solutions of PM2 DNA (10 μg/mL) at 0° C. were irradiated with 360 nm near-UV irradiation in the presence of various concentrations of acridine-viologen bifunctional molecules represented by compound of formula 1a and 1b (wherein Y=—(CH2)n, wherein n=1-11; R=—MV^2+—(CH2)m—CH32X^⊖ or —Pyr^2+—(CH2)m—CH32X^⊖ and wherein Y=—(CH2)n, wherein n=1-11; R=—MV^2+—(CH2)m—Acr2X^⊖ or —Pyr^2+—(CH2)m—Acr2X^⊖ respectively). Subsequently, the DNA was analyzed for the following types of modifications: (i) DNA single and double strand breaks; (ii) sites of base loss (AP sites) recognized by exonuclease III; (iii) base modifications plus AP sites sensitive to the T4 endonuclease V; (iv) base modifications plus AP sites sensitive to the endonuclease III and (v) base modifications plus AP sites sensitive to formamidopyrimidine-DNA glycosylase (FPG protein).

With `CCCC[n+]1ccc(-c2cc[n+](CCCCCCCCCCCc3c4ccccc4nc4ccccc34)cc2)cc1.[Br-].[Br-]` [1-[11-(acridin-9-yl)undecyl]-1′-butyl-4,4′-bipyridinium dibromide] the “K (DNA association constant)” value (calf thymus DNA; 2 mM NaCl) was 5.24e+06 M⁻¹, the “K (DNA association constant)” value (calf thymus DNA; 100 mM NaCl) was 164000 M⁻¹ and the “damage sensitive to FPG protein with increase in the time of irradiation” value (PM2 DNA) was “increases”. For the same molecule, the “generation of single strand breaks (SSB) with irradiation time” value (PM2 DNA) was “No significant increase”.
With `CCCC[n+]1ccc(-c2cc[n+](Cc3c4ccccc4nc4ccccc34)cc2)cc1.[Br-].[Br-]` [1-[(acridin-9-yl)methyl]-1′-butyl-4,4′-bipyridinium dibromide] the “K (DNA association constant)” value (calf thymus DNA; 2 mM NaCl) was 924000 M⁻¹, the “K (DNA association constant)” value (calf thymus DNA; 100 mM NaCl) was 101000 M⁻¹ and the “damage sensitive to FPG protein with increase in the time of irradiation” value (PM2 DNA) was “increases”. For the same molecule, the “generation of single strand breaks (SSB) with irradiation time” value (PM2 DNA) was “No significant increase”.
With “bis-1,1′-[(acridin-9-yl)methyl]-4,4′-bipyridinium dibromide” the “K (DNA association constant)” value (calf thymus DNA; 2 mM NaCl) was 1.3e+06 M⁻¹ and the “K (DNA association constant)” value (calf thymus DNA; 100 mM NaCl) was 390000 M⁻¹.
